Assay results: patent publication US5639778A, “Indoletetralins having dopaminergic activity” (Pharmacia & Upjohn Company, priority 1995, dated 1997)
Like-named read-outs stand apart in the source and are kept apart here.

Tests used:
[1] = system: DOPA accumulation in the cortex (NA synthesis rate); assay: DOPA accumulation in cortex of reserpine-pretreated rats; type: in vivo, rat; conditions: for DOPA ED50 Cortex. (I/P symbol): s.c., number in brackets = highest dose, μmol/kg; for ED50: Rattus norvegicus, sc, 0.5 h, read-out: DOPA ED50 Cortex. (I/P symbol)
Experimental: (§1) Effects on DOPA and 5-HTP accumulation in reserpine -
(§2) The animals were pretreated with reserpine (5 mg/kg, s.c.) 18 hours before the experiment. Test drugs were administered and immediately thereafter the motron activity was measured in photocell motility boxes. The rats were injected with the decarboxylase inhibitor NSD 1015 (100 mg/kg, s.c.) and killed 30 minutes later. The accumulation of DOPA in the striatum, limbic and […] and that of 5-HTP in the limbic forebrain was taken as a measure of the DA and 5-HT synthesis rates, respectively. The accumulation of DOPA in the cortex area was taken as a measure of NA synthesis rate. […] The same theory is valid for 5-HT receptor agonists and antagonists. Dose-response curves were constructed for each compound (4-5 dose levels, n=4) and the half-maximal decrease (ED50) was calculated.
(§3) P=partial decrease; maximal decrease was not reached at the highest dose (shown in brackets). The % decrease from control is also shown. NT=not tested. [drawing 4]

[2] = system: 5-HTP accumulation in the limbic forebrain (5-HT synthesis rate); assay: 5-HTP accumulation in limbic forebrain of reserpine-pretreated rats; type: in vivo, rat
Experimental: as §1, §2, §3

[3] = target: T1, serotonin 5-HT1A receptor (Rattus norvegicus, UniProt P19327); assay: in vitro affinity for brain serotonin 5-HT1A receptor sites, 8-OH-DPAT; conditions: non-pretreated, read-out: In vitro binding Ki 5HT1A
T1 construct: from tissue
T1 sequence (P19327 1-422): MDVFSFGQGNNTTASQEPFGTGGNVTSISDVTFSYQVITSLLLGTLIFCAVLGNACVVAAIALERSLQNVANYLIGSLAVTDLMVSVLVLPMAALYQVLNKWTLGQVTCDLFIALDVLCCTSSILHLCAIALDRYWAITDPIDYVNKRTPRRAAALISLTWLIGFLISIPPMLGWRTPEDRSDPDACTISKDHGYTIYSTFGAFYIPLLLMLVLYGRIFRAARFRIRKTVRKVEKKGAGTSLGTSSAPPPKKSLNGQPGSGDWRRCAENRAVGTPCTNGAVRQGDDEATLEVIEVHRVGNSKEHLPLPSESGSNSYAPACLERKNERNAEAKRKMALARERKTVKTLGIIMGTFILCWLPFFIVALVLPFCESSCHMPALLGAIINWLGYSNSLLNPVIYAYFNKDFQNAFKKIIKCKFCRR
From the text: (§4) pretreated rats. Also shown are the in vitro affinities for brain
(§5) dopamine (D2, Spiperone) and serotonin (5-HT1A, 8-OH-DPAT)
(§6) receptor sites in non-pretreated rats.

[4] = system: DOPA accumulation in the striatum (DA synthesis rate); assay: DOPA accumulation in striatum of reserpine-pretreated rats; type: in vivo, rat; conditions: for ED50: Rattus norvegicus, sc, 0.5 h, read-out: DOPA ED50 Stri.
Experimental: as §1, §2, §3

[5] = target: T2, dopamine D2 receptor (D2CHO cells) (Homo sapiens, UniProt P14416); assay: binding experiments using D2CHO cells and Raclopride as the labeled ligand
T2 construct: expressed in transfected cells; host or cells: CHO cells (D2CHO)
From the text: *Data from binding experiments using D2CHO cells and Raclopride as the […]

dopamine D2 receptor = target: T3, dopamine D2 receptor (Rattus norvegicus, UniProt P61169); assay: in vitro affinity for brain dopamine D2 receptor sites, Spiperone; type: binding; conditions: non-pretreated
T3 construct: from tissue
From the text: as §4, §5, §6

[6] = D2CHO cells, Raclopride as labeled ligand, read-out: In vitro binding Ki D2 (marked *)
[7] = Rattus norvegicus, sc, 0.5 h, read-out: 5-HTP ED50 Limbic (I/P symbol)
[8] = read-out: In vitro binding Ki D2-spip.

T2 sequence (P14416 whole entry): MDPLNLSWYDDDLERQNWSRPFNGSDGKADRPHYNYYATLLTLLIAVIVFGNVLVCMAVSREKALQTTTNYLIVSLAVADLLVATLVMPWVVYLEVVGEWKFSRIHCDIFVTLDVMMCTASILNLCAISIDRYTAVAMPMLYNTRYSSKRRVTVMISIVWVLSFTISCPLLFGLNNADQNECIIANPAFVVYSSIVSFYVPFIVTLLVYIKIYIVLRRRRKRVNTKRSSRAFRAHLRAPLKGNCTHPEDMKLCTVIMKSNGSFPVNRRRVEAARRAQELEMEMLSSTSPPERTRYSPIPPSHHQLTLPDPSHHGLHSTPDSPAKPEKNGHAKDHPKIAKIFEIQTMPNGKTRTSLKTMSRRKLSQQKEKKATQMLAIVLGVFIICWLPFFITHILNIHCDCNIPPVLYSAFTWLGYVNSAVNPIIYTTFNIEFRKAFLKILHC
T3 sequence (P61169 whole entry): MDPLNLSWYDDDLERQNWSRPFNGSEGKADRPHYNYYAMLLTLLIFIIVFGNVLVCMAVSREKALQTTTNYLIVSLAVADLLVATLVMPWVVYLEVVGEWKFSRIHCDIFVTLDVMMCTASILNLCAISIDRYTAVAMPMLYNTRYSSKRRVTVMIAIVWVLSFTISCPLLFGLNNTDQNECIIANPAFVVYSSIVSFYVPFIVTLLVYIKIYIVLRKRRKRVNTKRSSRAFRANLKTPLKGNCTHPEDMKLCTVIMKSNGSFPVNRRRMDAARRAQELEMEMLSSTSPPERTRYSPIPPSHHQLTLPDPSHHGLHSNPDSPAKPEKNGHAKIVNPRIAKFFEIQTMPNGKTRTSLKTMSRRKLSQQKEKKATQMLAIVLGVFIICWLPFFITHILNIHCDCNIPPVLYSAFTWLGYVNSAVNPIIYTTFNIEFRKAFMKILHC

CCCN(CCC)[C@H]1CCc2c(ccc3[nH]ccc23)[C@H]1C (relative stereo) [Example 15, cis-(6-Methyl-6,7,8,9-tetrahydro-3H-benzo[e]-indol-7-yl)-dipropylamine]
DOPA Cortex. % decrease from control ([1]; highest dose 50 μmol/kg s.c.): 88% | 5-HTP Limbic % decrease from control ([2]; highest dose 50 μmol/kg s.c.): 52% | Ki [3]: 124 nM | DOPA Stri. % decrease from control ([4]; highest dose 50 μmol/kg s.c.): 35% | Ki [5, 6]: 164 nM

CCCN(CCC)[C@H]1CCc2c(ccc3[nH]cc(C=O)c23)[C@H]1C (relative stereo) [Example 16, cis-7-Dipropylamino-6-methyl-6,7,8,9-tetrahydro-3H-benzo[e]-indole-1-carbaldehyde]
DOPA ED50 Cortex. (I/P symbol) [1]: I(50) | ED50 [2, 7]: 50 µmol/kg | DOPA Stri. % decrease from control ([4]; highest dose 50 μmol/kg s.c.): 36% | Ki [5, 6]: 924 nM

CCCN(CCC)C1CCc2c(ccc3[nH]ccc23)C1 (single isomer, unassigned; (+)) [7A(+), (+)-Dipropyl-(6,7,8,9-tetrahydro-benzo[e]indol-7-yl)-amine, reference compound]
DOPA Cortex. % decrease from control ([1]; highest dose 12.5 μmol/kg s.c.): 67% | Ki (dopamine D2 receptor; In vitro binding Ki D2-spip.): 35 nM | 5-HTP Limbic % decrease from control ([2]; highest dose 12.5 μmol/kg s.c.): 80% | ED50 [4]: 0.12 µmol/kg

CCCN(CCC)C1CCc2c(ccc3[nH]cc(C=O)c23)C1 (single isomer, unassigned; (+)) [8(+), (+)-7-Dipropylamino-6,7,8,9-tetrahydro-3H-benzo[e]indole-1-carbaldehyde]
ED50 [1]: 0.2 µmol/kg | ED50 [2, 7]: 0.2 µmol/kg | DOPA Stri. % decrease from control ([4]; highest dose 0.2 μmol/kg s.c.): 60%

CCCN(CCC)C1CCc2c(ccc3[nH]ccc23)C1 (single isomer, unassigned; (-)) [7A(-), (-)-Dipropyl-(6,7,8,9-tetrahydro-benzo[e]indol-7-yl)-amine, reference compound]
DOPA Cortex. % decrease from control ([1]; highest dose 25 μmol/kg s.c.): 73% | Ki (dopamine D2 receptor; [8]): 257 nM | 5-HTP Limbic % decrease from control ([2]; highest dose 25 μmol/kg s.c.): 68% | Ki [3]: 1450 nM | DOPA Stri. % decrease from control ([4]; highest dose 25 μmol/kg s.c.): 31%

CCCN(CCC)C1CCc2c(ccc3c2NC(=O)C3=O)C1 (stereo not drawn) [Example 1, 7-Di-n-propylamino-6,7,8,9-tetrahydro-1H-benzo[g]indole-2,3-dione]
highest dose tested (ED50 not reached) ([2]; Rattus norvegicus, sc, 0.5 h, s.c., number in brackets = highest dose, μmol/kg, read-out: 5-HTP ED50 Limbic (I/P symbol)): 50 µmol/kg | Ki [3]: 9930 nM | DOPA Stri. % decrease from control ([4]; highest dose 50 μmol/kg s.c.): 78% | Ki [5, 6]: 3520 nM

CCCN(CCC)C1CCc2c(ccc3cc[nH]c23)C1 (stereo not drawn) [Example 2, Di-n-propyl-(6,7,8,9-tetrahydro-1H-benzo[g]indol-7yl)amine]
Ki (dopamine D2 receptor; [8]): 320 nM | 5-HTP Limbic % decrease from control ([2]; highest dose 50 μmol/kg s.c.): 61% | Ki [3]: 1120 nM | DOPA Stri. % decrease from control ([4]; highest dose 50 μmol/kg s.c.): 48%

CCCN(CCC)C1CCc2c(ccc3c2NC(=O)C3)C1 (stereo not drawn) [Example 4, 7-Di-n-propylamino-1,3,6,7,8,9-hexahydro-1H-benzo[g]indole-2-one]
Ki (dopamine D2 receptor; [8]): 15900 nM | ED50 ([2]; Rattus norvegicus, sc, 0.5 h, s.c., half-maximal decrease, reserpine-pretreated rats, read-out: 5-HTP ED50 Limbic): 5.8 µmol/kg | Ki [3]: 25300 nM

CCCN(CCC)C1COc2c(ccc3cc[nH]c23)C1 (stereo not drawn) [Example 5, Di-n-propyl-(1,6,7,8-tetrahydro-9-oxa-1-azacyclopenta[a]naphthylenee-7-yl)amine]
DOPA ED50 Cortex. (I/P symbol) [1]: I(50) | Ki (dopamine D2 receptor; [8]): 270 nM | 5-HTP Limbic % decrease from control ([2]; highest dose 50 μmol/kg s.c.): 62% | Ki [3]: 178 nM | DOPA Stri. % decrease from control ([4]; highest dose 3.1 μmol/kg s.c.): 26%

CCCN(CCC)C1CCc2cc3[nH]ccc3cc2C1 (stereo not drawn) [Example 7, Di-n-propyl-(5,6,7,8-tetrahydro-1H-benzo[f]indol-6-yl)amine]
Ki (dopamine D2 receptor; [8]): 4200 nM | ED50 [2, 7]: 50 µmol/kg | Ki [3]: 340 nM | DOPA Stri. % decrease from control ([4]; highest dose 50 μmol/kg s.c.): 48%

CCCN(CCC)C1CCc2c(ccc3[nH]ccc23)C1 (stereo not drawn) [Example 7A, Di-n-propyl-(6,7,8,9-tetrahydro-3H-benzo[e]indol-7-yl)amine, reference compound]
ED50 [1]: 12.5 µmol/kg | Ki (dopamine D2 receptor; In vitro binding Ki D2-spip.): 50 nM | 5-HTP Limbic % decrease from control ([2]; highest dose 3.1 μmol/kg s.c.): 72% | Ki [3]: 500 nM | ED50 [4]: 0.3 µmol/kg

CCCN(CCC)C1CCc2c(ccc3[nH]cc(C=O)c23)C1 (stereo not drawn) [Example 8, 7-Di-n-propylamino-6,7,8,9-tetrahydro-3H-benzo [e]indole-1-carbaldehyde]
DOPA Cortex. % decrease from control ([1]; highest dose 0.2 μmol/kg s.c.): 57% | Ki (dopamine D2 receptor; In vitro binding Ki D2-spip.): 16 nM | ED50 [2, 7]: 50 µmol/kg | Ki [3]: 2600 nM | ED50 [4]: 0.015 µmol/kg

CCCN(CCC)C1CCc2cc3[nH]cc(C=O)c3cc2C1 (stereo not drawn) [Example 9, 6-Di-n-propylamino-5,6,7,8-tetrahydro-1H-benzo [f]indole-3-carbaldehyde]
DOPA Cortex. % decrease from control ([1]; highest dose 12.5 μmol/kg s.c.): 85% | ED50 [2, 7]: 12.5 µmol/kg | DOPA Stri. % decrease from control ([4]; highest dose 12.5 μmol/kg s.c.): 37% | Ki [5, 6]: 278 nM

CCCN(CCC)C1CCc2c(ccc3[nH]cc(C#N)c23)C1 (stereo not drawn) [Example 10, 7-Di-n-propylamino-6,7,8,9-tetrahydro-3H-benzo[e]indole-1-carbonitrile]
DOPA Cortex. % decrease from control ([1]; highest dose 3.1 μmol/kg s.c.): 79% | ED50 [2, 7]: 3.1 µmol/kg | ED50 [4]: 0.004 µmol/kg | Ki [5]: 10.1 nM

CCCN(CCC)C1CCc2c(ccc3ccoc23)C1 (stereo not drawn) [Example 17, Di-n-propyl-(6,7,8,9-tetrahydronaphtho[1,2-b]furan-7-yl)-amine]
DOPA Cortex. % decrease from control ([1]; highest dose 33.3 μmol/kg s.c.): 79% | ED50 [2, 7]: 33.3 µmol/kg | ED50 [4]: 1 µmol/kg | Ki [5]: 205 nM
